# Results: patent publication US20240059694A1, “COMPOUND CONTAINING 1,3-BENZODIOXOL STRUCTURE AND PREPARATION METHOD AND USE THEREOF” (priority 2021, published 2024)
# Assays:
# BTK = BTK (Homo sapiens (Human), UniProt Q06187); assay: BTK kinase inhibitory activity experiment (Caliper EZ reader conversion rate); assay type: biochemical; conditions: for IC50: in vitro kinase assay, 20 min incubation, class key in μM; for inhibitory activity on BTK (in words): summary of Table 1
# Method: (§1) Experimental method: The 384-well plate was divided into compound wells (starting at 10 μM, diluted three times to produce 10 concentrations), positive control wells and negative control wells; kinase solution was added to compound wells and positive control wells, and 1×kinase buffer was added to negative control wells; the solution is next centrifuged for 30 seconds and incubated at room temperature for 10 min. Add 15 μL of the mixed solution of ATP and substrate, shake and mix well after centrifugation and incubate at room temperature (30 min for JAK3, 20 min for BTK). Add stop detection solution to stop the reaction, and read the conversion rate with Caliper EZ reader, Data analysis: The formula is as follows: […]
# (§2) where Conversion %_sample is the conversion rate reading of the sample Conversion %_min is the average value of the negative control wells representing the conversion rate reading of the wells without enzyme addition; and Conversion %_max is the average value of the positive control wells representing the conversion rate reading of the wells without adding the compound. Fit the dose-response curve: Taking the log value of the concentration as the X-axis, and the percentage inhibition rate as the Y-axis, the dose-response curve was fitted using the log (inhibitor) vs. response-Variable slope of the software GraphPad Prism 5, so as to obtain the IC50 value of each compound on the enzyme activity.
# JAK3 = JAK3 (Homo sapiens (Human), UniProt P52333); assay: JAK3 kinase inhibitory activity experiment (Caliper EZ reader conversion rate); assay type: biochemical; conditions: for IC50: in vitro kinase assay, 30 min incubation, class key in μM; for inhibitory activity on JAK3 (in words): summary of Table 1
# Method: as §1, §2
# BaF3-TEL-JAK3 cells = assay: Proliferation inhibition of BaF3-TEL-JAK3 cells (Cell Titer-Glo, 72 h); assay type: cell-based; conditions: 72 h drug action, class key in μM
# Method: (§3) Experimental procedure: A certain number of cells in the logarithmic growth phase were inoculated in a 96-well plate and cultured at 37° C. before adding drugs. After 72 h of drug action, after the 96-well cell plate was equilibrated to room temperature, 40 μL of Cell Titer-Glo® reagent was added to each well; each plate was then shaken for 2 min and allowed to stand for 10 min, the chemiluminescent signal was detected with an MD SpectraMax Paradigm microplate reader. Data analysis: The formula is as follows: […]
# (§4) Max signal: DMSO signal; Min signal: medium signal, IC50 was calculated using GraphPad Prism 5.
# Daudi cells = assay: Proliferation inhibition of Daudi cells (Cell Titer-Glo, 72 h); assay type: cell-based; conditions: 72 h drug action, class key in μM
# Method: as §3, §4
# Sequence of BTK (Q06187 whole entry): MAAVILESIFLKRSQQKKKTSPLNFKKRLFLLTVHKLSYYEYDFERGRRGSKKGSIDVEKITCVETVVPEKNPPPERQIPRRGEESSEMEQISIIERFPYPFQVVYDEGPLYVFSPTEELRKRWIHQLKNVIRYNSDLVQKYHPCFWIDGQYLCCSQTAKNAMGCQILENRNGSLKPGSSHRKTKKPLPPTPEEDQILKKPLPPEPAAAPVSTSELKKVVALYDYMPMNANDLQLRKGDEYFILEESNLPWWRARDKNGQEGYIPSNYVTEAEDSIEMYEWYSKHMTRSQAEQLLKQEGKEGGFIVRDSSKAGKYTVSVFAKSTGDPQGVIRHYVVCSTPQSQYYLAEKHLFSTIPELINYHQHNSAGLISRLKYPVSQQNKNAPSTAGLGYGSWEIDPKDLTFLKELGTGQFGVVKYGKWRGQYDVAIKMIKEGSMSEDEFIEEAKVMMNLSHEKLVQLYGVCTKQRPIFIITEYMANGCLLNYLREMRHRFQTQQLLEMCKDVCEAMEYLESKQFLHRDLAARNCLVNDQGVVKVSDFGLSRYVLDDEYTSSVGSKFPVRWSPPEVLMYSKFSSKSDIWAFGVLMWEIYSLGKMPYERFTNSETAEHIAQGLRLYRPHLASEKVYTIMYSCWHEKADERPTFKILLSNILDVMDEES
# Sequence of JAK3 (P52333 whole entry): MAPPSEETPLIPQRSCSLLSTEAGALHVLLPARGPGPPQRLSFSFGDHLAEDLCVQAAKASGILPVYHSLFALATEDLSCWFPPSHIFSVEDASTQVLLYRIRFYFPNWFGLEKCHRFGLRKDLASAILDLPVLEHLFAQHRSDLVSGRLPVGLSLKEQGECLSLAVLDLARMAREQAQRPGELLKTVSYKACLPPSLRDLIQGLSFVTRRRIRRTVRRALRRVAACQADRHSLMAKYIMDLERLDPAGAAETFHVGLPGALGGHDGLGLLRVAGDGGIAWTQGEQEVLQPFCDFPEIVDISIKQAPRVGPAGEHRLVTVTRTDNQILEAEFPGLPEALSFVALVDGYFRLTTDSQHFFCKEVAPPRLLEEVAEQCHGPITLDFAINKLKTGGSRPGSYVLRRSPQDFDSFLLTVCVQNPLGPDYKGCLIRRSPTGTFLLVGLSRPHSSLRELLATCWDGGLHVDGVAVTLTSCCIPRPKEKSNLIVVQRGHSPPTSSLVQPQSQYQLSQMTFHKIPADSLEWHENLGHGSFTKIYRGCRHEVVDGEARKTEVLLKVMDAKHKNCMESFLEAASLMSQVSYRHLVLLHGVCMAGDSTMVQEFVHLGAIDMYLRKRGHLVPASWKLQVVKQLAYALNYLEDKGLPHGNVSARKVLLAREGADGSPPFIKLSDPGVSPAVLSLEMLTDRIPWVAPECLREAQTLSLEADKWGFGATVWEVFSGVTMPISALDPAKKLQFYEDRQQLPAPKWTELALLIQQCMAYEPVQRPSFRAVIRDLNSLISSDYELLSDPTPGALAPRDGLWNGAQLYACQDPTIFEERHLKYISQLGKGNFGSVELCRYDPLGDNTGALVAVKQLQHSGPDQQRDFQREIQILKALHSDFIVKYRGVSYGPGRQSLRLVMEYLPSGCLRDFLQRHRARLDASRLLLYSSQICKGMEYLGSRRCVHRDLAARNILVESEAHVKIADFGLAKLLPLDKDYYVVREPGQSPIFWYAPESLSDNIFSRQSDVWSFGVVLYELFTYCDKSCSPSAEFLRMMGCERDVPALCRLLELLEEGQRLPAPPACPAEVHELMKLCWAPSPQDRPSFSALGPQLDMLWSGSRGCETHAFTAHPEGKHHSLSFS
IC50 (BTK) [µM],IC50 (JAK3) [µM],IC50 (BaF3-TEL-JAK3 cells) [µM],IC50 (Daudi cells) [µM],inhibitory activity on BTK (in words) (BTK),inhibitory activity on JAK3 (in words) (JAK3),SMILES
0.001 to 0.05,0.001 to 0.05,0.5 to 1,0.5 to 1,excellent inhibitory activity,excellent inhibitory activity,"C=CC(=O)N1CCC[C@@H](n2nc(-c3ccc(NC(=O)c4cccc(Cl)c4)c4c3OCO4)c3c(N)ncnc32)C1 [I-6, (R)-N-(7-(1-(1-acryloylpiperidin-3)-4-amino-1H-pyrazolo[3,4-d]pyrimidin-3-)benzo[d][1,3]dioxoheterocyclopenten-4)-3-chlorobenzamide]"
0.001 to 0.05,0.001 to 0.05,0.01 to 0.5,0.01 to 0.5,excellent inhibitory activity,excellent inhibitory activity,"C=CC(=O)N1CCC[C@@H](n2nc(-c3ccc(NC(=O)c4ccc(C(C)(C)C)cc4)c4c3OCO4)c3c(N)ncnc32)C1 [I-11, (R)-N-(7-(1-(1-acryloylpiperidin-3)-4-amino-1H-pyrazolo[3,4-d]pyrimidin-3-)benzo[d][1,3]dioxoheterocyclopenten-4)-4-tert-butylbenzamide]"
0.001 to 0.05,0.001 to 0.05,0.01 to 0.5,0.5 to 1,–,–,"C=CC(=O)N1CCC[C@@H](n2nc(-c3ccc(NC(=O)c4ccc(N(C)C)cc4)c4c3OCO4)c3c(N)ncnc32)C1 [I-13, (R)-N-(7-(1-(1-acryloylpiperidin-3)-4-amino-1H-pyrazolo[3,4-d]pyrimidin-3-)benzo[d][1,3]dioxoheterocyclopenten-4)-4-(dimethylamino)benzamide]"
0.001 to 0.05,0.001 to 0.05,0.01 to 0.5,0.5 to 1,–,–,"C=CC(=O)N1CCC[C@@H](n2nc(-c3ccc(NC(=O)c4ccc(N(CC)CC)cc4)c4c3OCO4)c3c(N)ncnc32)C1 [I-15, (R)-N-(7-(1-(1-acryloylpiperidin-3)-4-amino-1H-pyrazolo[3,4-d]pyrimidin-3-)benzo[d][1,3]dioxoheterocyclopenten-4)-4-(diethylamino)benzamide]"
0.001 to 0.05,0.001 to 0.05,0.01 to 0.5,0.01 to 0.5,–,–,"C=CC(=O)N1CCC[C@@H](n2nc(-c3ccc(NC(=O)c4sc5ccccc5c4Cl)c4c3OCO4)c3c(N)ncnc32)C1 [I-16, (R)-N-(7-(1-(1-acryloylpiperidin-3)-4-amino-1H-pyrazolo[3,4-d]pyrimidin-3-yl)benzo[d][1,3]dioxoheterocyclopenten-4-)-3-chlorobenzo[b]thiophene-2-formamide]"
0.001 to 0.05,0.001 to 0.05,0.5 to 1,0.5 to 1,–,–,"C=CC(=O)N1CCC[C@@H](n2nc(-c3ccc(NC(=O)c4cccc5ccccc45)c4c3OCO4)c3c(N)ncnc32)C1 [I-17, (R)-N-(7-(1-(1-acryloylpiperidin-3-yl)-4-amino-1H-pyrazolo[3,4-d]pyrimidin-3-)benzo[d][1,3]dioxoheterocyclopenten-4-)-1-naphthalenecarboxamide]"
0.001 to 0.05,0.001 to 0.05,0.5 to 1,0.5 to 1,–,–,"C=CC(=O)N1CCC[C@@H](n2nc(-c3ccc(NC(=O)c4ccc5ccccc5c4)c4c3OCO4)c3c(N)ncnc32)C1 [I-18, (R)-N-(7-(1-(1-acryloylpiperidin-3)-4-amino-1H-pyrazolo[3,4-d]pyrimidin-3-)benzo[d][1,3]dioxoheterocyclopenten-4)-2-naphthalenecarboxamide]"
0.001 to 0.05,0.001 to 0.05,0.5 to 1,0.5 to 1,–,–,"C=CC(=O)N1CCC[C@@H](n2nc(-c3ccc(NC(=O)c4cccc5c4CCCC5)c4c3OCO4)c3c(N)ncnc32)C1 [I-20, (R)-N-(7-(1-(1-acryloylpiperidin-3-yl)-4-amino-1H-pyrazolo[3,4-d]pyrimidin-3-)benzo[d][1,3]dioxoheterocyclopenten-4-)-5,6,7,8-tetrahydronaphthalene-1-carboxamide]"
0.001 to 0.05,0.001 to 0.05,0.5 to 1,0.5 to 1,–,–,"C=CC(=O)N1CCC[C@@H](n2cc(-c3ccc(NC(=O)c4cccc5ccccc45)c4c3OCO4)c3c(N)ncnc32)C1 [I-21, (R)-N-(7-(7-(1-acryloylpiperidin-3-yl)-4-amino-7H-pyrrolo[2,3-d]pyrimidin-5-yl)benzo[d][1,3]dioxoheterocyclopenten-4-)-1-naphthalenecarboxamide]"

SMILES,IC50 (BTK) [µM],IC50 (JAK3) [µM],IC50 (BaF3-TEL-JAK3 cells) [µM],IC50 (Daudi cells) [µM],inhibitory activity on BTK (in words) (BTK),inhibitory activity on JAK3 (in words) (JAK3)
"C=CC(=O)N1CCC[C@@H](n2nc(-c3ccc(NC(=O)c4ccc[nH]4)c4c3OCO4)c3c(N)ncnc32)C1 [I-3, (R)-N-(7-(1-(1-acryloylpiperidin-3-yl)-4-amino-1H-pyrazolo[3,4d]pyrimidin-3-)benzo[d][1,3]dioxoheterocyclopenten-4)-1H-pyrrole-2-formamide]",0.001 to 0.05,0.05 to 0.5,0.5 to 1,0.5 to 1,–,–
"C=CC(=O)N1CCC[C@@H](n2nc(-c3ccc(NC(=O)c4ccccn4)c4c3OCO4)c3c(N)ncnc32)C1 [I-4, (R)-N-(7-(1-(1-acryloylpiperidin-3)-4-amino-1H-pyrazolo[3,4-d]pyrimidin-3-yl)benzo[d][1,3]dioxoheterocyclopenten-4)pyridine-2-formamide]",0.001 to 0.05,0.05 to 0.5,0.5 to 1,0.5 to 1,–,–
"C=CC(=O)N1CCC[C@@H](n2nc(-c3ccc(NC(=O)c4ccc(Cl)cc4)c4c3OCO4)c3c(N)ncnc32)C1 [I-7, (R)-N-(7-(1-(1-acryloylpiperidin-3)-4-amino-1H-pyrazolo[3,4d]pyrimidin-3-)benzo[d][1,3]dioxoheterocyclopenten-4)-4-chlorobenzamide]",0.001 to 0.05,0.001 to 0.05,0.5 to 1,0.5 to 1,excellent inhibitory activity,excellent inhibitory activity
"C=CC(=O)N1CCC[C@@H](n2nc(-c3ccc(NC(=O)c4ccc(-c5ccccc5)cc4)c4c3OCO4)c3c(N)ncnc32)C1 [I-24, (R)-N-(7-(1-(1-acryloylpiperidin-3-yl)-4-amino-1H-pyrazolo[3,4-d]pyrimidin-3-)benzo[d][1,3]dioxoheterocyclopenten-4)-[1,1′-Biphenyl]-4-carboxamide]",0.001 to 0.05,0.05 to 0.5,0.01 to 0.5,0.01 to 0.5,–,–
